Source: ChEMBL document CHEMBL4823294, “Discovery of cinnoline derivatives as potent PI3K inhibitors with antiproliferative activity” (Bioorg Med Chem Lett, 2021)
The source made the active and inactive calls. No cut-off for these calls is given here.

Columns and labels:
[1] = molecular target: T1, Phosphatidylinositol 4,5-bisphosphate 3-kinase catalytic subunit delta isoform (Homo sapiens, UniProt O00329); assay: Inhibition of PI3Kdelta (unknown origin)
T1 sequence (O00329 whole entry): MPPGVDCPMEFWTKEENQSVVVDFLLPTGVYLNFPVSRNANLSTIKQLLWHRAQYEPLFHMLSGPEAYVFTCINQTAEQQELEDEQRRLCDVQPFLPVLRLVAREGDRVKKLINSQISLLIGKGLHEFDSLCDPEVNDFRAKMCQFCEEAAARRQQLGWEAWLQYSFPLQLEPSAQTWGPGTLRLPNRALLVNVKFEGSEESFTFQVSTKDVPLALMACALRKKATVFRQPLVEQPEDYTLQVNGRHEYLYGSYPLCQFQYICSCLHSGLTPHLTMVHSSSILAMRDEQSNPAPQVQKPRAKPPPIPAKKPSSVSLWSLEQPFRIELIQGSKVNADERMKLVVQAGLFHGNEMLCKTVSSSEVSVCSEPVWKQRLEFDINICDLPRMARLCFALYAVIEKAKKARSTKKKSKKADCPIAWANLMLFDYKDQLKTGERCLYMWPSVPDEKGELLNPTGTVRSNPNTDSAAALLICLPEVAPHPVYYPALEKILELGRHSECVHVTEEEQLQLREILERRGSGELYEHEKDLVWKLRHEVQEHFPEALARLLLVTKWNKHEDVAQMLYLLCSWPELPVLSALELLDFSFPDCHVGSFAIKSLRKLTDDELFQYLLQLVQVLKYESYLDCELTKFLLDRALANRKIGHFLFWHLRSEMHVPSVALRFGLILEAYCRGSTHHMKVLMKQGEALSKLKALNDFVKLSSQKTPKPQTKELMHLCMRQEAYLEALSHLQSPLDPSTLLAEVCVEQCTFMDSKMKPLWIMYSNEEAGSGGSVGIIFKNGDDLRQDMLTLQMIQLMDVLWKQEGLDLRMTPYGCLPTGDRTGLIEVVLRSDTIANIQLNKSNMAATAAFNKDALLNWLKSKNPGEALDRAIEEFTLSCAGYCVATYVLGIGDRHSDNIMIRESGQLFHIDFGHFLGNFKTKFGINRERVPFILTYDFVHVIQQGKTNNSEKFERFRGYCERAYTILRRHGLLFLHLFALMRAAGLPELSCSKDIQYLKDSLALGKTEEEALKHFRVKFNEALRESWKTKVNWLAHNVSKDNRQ

[2] = molecular target: Phosphatidylinositol 4,5-bisphosphate 3-kinase catalytic subunit beta isoform (Homo sapiens, UniProt P42338); assay: Inhibition of PI3Kbeta (unknown origin)
Chain of Phosphatidylinositol 4,5-bisphosphate 3-kinase catalytic subunit beta isoform (P42338 whole entry, canonical isoform): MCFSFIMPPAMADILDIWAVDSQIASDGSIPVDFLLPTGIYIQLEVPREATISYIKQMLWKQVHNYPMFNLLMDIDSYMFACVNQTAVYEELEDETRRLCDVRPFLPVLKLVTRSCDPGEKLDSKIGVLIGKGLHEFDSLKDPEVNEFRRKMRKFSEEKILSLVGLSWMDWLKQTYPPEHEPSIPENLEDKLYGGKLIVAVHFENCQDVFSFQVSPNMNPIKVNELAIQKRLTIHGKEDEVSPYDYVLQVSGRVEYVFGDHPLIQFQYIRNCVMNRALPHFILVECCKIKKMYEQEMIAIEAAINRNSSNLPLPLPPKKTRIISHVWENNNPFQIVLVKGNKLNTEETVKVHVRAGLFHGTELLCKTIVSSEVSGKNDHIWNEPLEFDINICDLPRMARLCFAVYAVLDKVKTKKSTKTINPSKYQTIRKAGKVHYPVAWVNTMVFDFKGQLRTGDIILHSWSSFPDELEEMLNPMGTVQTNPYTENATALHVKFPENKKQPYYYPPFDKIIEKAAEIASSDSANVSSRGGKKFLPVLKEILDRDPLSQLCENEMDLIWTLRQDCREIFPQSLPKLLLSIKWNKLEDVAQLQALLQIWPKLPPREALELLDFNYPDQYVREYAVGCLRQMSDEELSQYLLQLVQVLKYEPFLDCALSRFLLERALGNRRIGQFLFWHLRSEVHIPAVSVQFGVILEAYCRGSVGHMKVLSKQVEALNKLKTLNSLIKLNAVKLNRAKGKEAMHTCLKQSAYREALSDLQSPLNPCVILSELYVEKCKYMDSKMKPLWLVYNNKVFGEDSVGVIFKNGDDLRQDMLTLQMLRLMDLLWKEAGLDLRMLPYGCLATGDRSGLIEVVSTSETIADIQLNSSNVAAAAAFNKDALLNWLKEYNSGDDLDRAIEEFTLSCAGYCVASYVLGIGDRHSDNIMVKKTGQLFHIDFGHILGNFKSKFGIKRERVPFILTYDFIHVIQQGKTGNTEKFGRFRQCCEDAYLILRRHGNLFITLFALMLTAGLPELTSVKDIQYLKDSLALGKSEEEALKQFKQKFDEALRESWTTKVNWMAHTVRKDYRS

[3] = molecular target: Phosphatidylinositol 4,5-bisphosphate 3-kinase catalytic subunit alpha isoform (Homo sapiens, UniProt P42336); assay: Inhibition of PI3Kalpha (unknown origin)
Chain of Phosphatidylinositol 4,5-bisphosphate 3-kinase catalytic subunit alpha isoform (P42336 whole entry, canonical isoform): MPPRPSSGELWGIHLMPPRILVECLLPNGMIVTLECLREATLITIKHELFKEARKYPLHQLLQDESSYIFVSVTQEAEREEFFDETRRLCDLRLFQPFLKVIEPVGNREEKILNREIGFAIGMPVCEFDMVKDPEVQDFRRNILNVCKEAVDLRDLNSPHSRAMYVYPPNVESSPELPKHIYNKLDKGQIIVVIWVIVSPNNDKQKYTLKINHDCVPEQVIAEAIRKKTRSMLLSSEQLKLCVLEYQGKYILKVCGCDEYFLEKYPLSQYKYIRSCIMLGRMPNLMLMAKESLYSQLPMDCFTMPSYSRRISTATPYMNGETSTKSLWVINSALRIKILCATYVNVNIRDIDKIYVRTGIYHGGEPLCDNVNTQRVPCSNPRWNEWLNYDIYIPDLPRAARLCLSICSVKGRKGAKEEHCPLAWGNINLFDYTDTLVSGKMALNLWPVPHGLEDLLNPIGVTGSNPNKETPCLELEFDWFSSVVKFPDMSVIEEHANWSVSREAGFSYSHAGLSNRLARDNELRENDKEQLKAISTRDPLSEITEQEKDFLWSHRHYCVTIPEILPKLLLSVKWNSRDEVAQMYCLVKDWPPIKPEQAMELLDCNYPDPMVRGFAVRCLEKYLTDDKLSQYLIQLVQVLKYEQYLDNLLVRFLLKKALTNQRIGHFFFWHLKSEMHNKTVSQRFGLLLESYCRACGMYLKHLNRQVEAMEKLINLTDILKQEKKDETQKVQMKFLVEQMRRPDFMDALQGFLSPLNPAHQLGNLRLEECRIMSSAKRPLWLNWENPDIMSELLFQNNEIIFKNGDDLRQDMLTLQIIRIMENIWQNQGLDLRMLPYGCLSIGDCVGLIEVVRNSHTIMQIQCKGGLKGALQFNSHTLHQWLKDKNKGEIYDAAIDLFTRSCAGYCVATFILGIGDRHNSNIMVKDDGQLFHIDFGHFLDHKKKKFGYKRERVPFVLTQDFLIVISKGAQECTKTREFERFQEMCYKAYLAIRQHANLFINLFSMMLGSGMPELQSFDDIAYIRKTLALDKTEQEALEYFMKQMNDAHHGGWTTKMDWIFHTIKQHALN

[4] = molecular target: Phosphatidylinositol 4,5-bisphosphate 3-kinase catalytic subunit gamma isoform (Homo sapiens, UniProt P48736); assay: Inhibition of PI3Kgamma (unknown origin)
Chain of Phosphatidylinositol 4,5-bisphosphate 3-kinase catalytic subunit gamma isoform (P48736 whole entry, canonical isoform): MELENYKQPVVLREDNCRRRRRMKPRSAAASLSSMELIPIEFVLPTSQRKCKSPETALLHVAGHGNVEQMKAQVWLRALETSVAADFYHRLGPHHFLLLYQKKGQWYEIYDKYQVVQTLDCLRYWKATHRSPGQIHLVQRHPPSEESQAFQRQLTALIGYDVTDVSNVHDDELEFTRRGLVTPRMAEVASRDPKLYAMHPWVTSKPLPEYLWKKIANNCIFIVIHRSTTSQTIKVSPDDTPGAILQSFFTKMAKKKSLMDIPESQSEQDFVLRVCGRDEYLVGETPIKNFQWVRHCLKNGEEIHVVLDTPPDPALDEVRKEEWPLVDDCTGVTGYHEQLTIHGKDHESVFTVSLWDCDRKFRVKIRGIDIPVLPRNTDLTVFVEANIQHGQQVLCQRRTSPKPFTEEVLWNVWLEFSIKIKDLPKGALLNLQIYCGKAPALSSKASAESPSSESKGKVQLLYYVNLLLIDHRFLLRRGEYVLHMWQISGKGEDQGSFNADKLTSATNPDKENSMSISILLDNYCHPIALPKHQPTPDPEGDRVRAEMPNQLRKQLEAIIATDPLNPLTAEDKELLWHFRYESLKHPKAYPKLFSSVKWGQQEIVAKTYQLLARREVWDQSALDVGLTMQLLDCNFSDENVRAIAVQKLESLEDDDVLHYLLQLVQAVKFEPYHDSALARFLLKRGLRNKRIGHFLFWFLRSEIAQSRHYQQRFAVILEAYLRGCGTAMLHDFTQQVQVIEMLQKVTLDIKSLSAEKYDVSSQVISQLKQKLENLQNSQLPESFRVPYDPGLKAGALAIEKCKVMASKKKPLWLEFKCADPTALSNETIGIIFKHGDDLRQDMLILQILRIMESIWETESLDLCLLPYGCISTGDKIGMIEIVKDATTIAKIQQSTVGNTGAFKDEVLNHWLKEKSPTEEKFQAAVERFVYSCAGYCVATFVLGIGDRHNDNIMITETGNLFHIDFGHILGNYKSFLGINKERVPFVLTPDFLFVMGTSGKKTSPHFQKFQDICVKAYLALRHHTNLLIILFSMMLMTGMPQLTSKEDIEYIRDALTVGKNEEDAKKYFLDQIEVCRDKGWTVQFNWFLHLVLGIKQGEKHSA

MCF7 = assay: Antiproliferative activity against human MCF7 cells; type: functional, cell-based
HL-60 = assay: Antiproliferative activity against human HL-60 cells; type: functional, cell-based
A549 = assay: Antiproliferative activity against human A549 cells; type: functional, cell-based
U-87 MG [5] = assay: Antiproliferative activity against human U-87 MG cells; type: functional, cell-based, U-87MG ATCC
HepG2 = assay: Antiproliferative activity against human HepG2 cells; type: functional, cell-based
HeLa = assay: Antiproliferative activity against human HeLa cells; type: functional, cell-based
U-87 MG [6] = assay: Inhibition of Akt expression in human U-87 MG cells at 1 uM by Western blotting analysis; type: cell-based
U-87 MG [7] = assay: Inhibition of Akt expression in human U-87 MG cells at 5 uM by Western blotting analysis; type: cell-based
U-87 MG [8] = assay: Inhibition of Akt phosphorylation at Ser473 in human U-87 MG cells at 1 to 5 uM by Western blotting analysis; type: cell-based; conditions: dose 1-5 µM

SMILES	IC50 [1]	IC50 [2]	IC50 [3]	IC50 [4]	further results
COc1ncc(-c2ccc3nncc(Cl)c3c2)cc1NS(=O)(=O)c1ccccc1	4.42 nM				
O=S(=O)(Nc1cc(-c2ccc3nncc(-c4ccc(N5CCOCC5)cc4)c3c2)cnc1Cl)c1ccccc1	0.4 nM	3.04 nM	0.711 nM	2.29 nM	
COc1ncc(-c2ccc3nncc(Nc4ccc(NC(C)=O)cc4)c3c2)cc1NS(=O)(=O)c1ccccc1	8.57 nM				
COc1ncc(-c2ccc3nncc(Nc4ccccc4)c3c2)cc1NS(=O)(=O)c1ccccc1	30.3 nM				
COc1ncc(-c2ccc3nncc(N4CCOCC4)c3c2)cc1NS(=O)(=O)c1ccccc1	4.08 nM				
O=S(=O)(Nc1cc(-c2ccc3nncc(-c4ccc(N5CCOCC5)nc4)c3c2)cnc1Cl)c1ccccc1	0.28 nM	1.54 nM	0.709 nM	1.89 nM	
O=S(=O)(Nc1cc(-c2ccc3nncc(-n4ccnc4)c3c2)cnc1Cl)c1ccccc1	0.21 nM	2.39 nM	1.37 nM	4.02 nM	IC50 (MCF7): 39900 nM; IC50 (HL-60): 2400 nM; IC50 (A549): > 50000 nM; IC50 (U-87 MG [5]): 16700 nM; IC50 (HepG2): > 16600 nM; IC50 (HeLa): > 50000 nM
O=S(=O)(Nc1cc(-c2ccc3nnccc3c2)cnc1Cl)c1ccccc1	19.4 nM				
O=S(=O)(Nc1cc(-c2ccc3nncc(-c4ccncc4)c3c2)cnc1Cl)c1ccccc1	0.36 nM	1.7 nM	0.71 nM	2.25 nM	
C[C@@H](Nc1cnnc2ccc(-c3cnc(Cl)c(NS(=O)(=O)c4ccccc4)c3)cc12)c1ccccc1	5.46 nM				
O=S(=O)(Nc1cc(-c2ccc3nncc(Nc4ccccc4)c3c2)cnc1Cl)c1ccccc1	4.47 nM				
C[C@H](Nc1cnnc2ccc(-c3cnc(Cl)c(NS(=O)(=O)c4ccccc4)c3)cc12)c1ccccc1	27 nM				
O=S(=O)(Nc1cc(-c2ccc3nncc(-c4cnc(N5CCOCC5)nc4)c3c2)cnc1Cl)c1ccccc1	0.65 nM	4.72 nM	0.936 nM	4.42 nM	IC50 (MCF7): 31100 nM; inhibition (U-87 MG [6]): inactive; inhibition (U-87 MG [7]): Active; IC50 (HL-60): 1140 nM; IC50 (A549): 10100 nM; IC50 (U-87 MG [5]): 264 nM; IC50 (HepG2): > 16600 nM; IC50 (HeLa): 2040 nM; inhibition (U-87 MG [8]): Active
O=S(=O)(Nc1cc(-c2ccc3nncc(N4CCCC4)c3c2)cnc1Cl)c1ccccc1	0.87 nM	5.41 nM	2.64 nM	5.97 nM	
O=S(=O)(Nc1cc(-c2ccc3nncc(-c4ccccc4)c3c2)cnc1Cl)c1ccccc1	2.91 nM				
Oc1cccc(-c2nc(N3CCOCC3)c3oc4ncccc4c3n2)c1 [PI-103]					IC50 (HL-60): 65.6 nM; IC50 (HeLa): 230 nM
COc1ccc(CNc2cnnc3ccc(-c4cnc(Cl)c(NS(=O)(=O)c5ccccc5)c4)cc23)cc1	1.02 nM				
CC1CCN(c2cnnc3ccc(-c4cnc(Cl)c(NS(=O)(=O)c5ccccc5)c4)cc23)CC1	0.32 nM	5.33 nM	1.61 nM	3.66 nM	
CCOc1cnnc2ccc(-c3cnc(Cl)c(NS(=O)(=O)c4ccccc4)c3)cc12	0.4 nM	5.61 nM	1.78 nM	4.73 nM	
O=S(=O)(Nc1cc(-c2ccc3nncc(N4CCNCC4)c3c2)cnc1Cl)c1ccccc1	1.58 nM				IC50 (MCF7): > 50000 nM; IC50 (HL-60): > 16600 nM; IC50 (A549): > 50000 nM; IC50 (U-87 MG [5]): 589 nM; IC50 (HepG2): > 50000 nM; IC50 (HeLa): > 16600 nM
COc1cnnc2ccc(-c3cnc(Cl)c(NS(=O)(=O)c4ccccc4)c3)cc12	1.1 nM				
O=S(=O)(Nc1cc(-c2ccc3nncc(O)c3c2)cnc1Cl)c1ccccc1	833 nM				
CC(=O)Nc1ccc(Nc2cnnc3ccc(-c4cnc(Cl)c(NS(=O)(=O)c5ccccc5)c4)cc23)cc1	3.3 nM				
CCCCCCOc1cnnc2ccc(-c3cnc(Cl)c(NS(=O)(=O)c4ccccc4)c3)cc12	215 nM				
O=S(=O)(Nc1cc(-c2ccc3nncc(Cl)c3c2)cnc1Cl)c1ccccc1	0.55 nM				
O=S(=O)(Nc1cc(-c2ccc3nncc(N4CCOCC4)c3c2)cnc1Cl)c1ccccc1	0.85 nM	14.5 nM	1.55 nM	4.36 nM	IC50 (MCF7): 13100 nM; IC50 (HL-60): > 16600 nM; IC50 (A549): > 16600 nM; IC50 (U-87 MG [5]): 2020 nM; IC50 (HepG2): 18300 nM; IC50 (HeLa): 7700 nM
O=S(=O)(Nc1cc(-c2ccc3nncc(N4CCCCC4)c3c2)cnc1Cl)c1ccccc1	0.67 nM	4.6 nM	1.33 nM	3.19 nM	
